Key:
[1] = tested on: morning glory (Pharbitis nil); test: Flower bud formation promoting activity of ketol fatty acid derivative II in morning glory (Example 6); format: in vivo; conditions: for flower bud formation promoting effect (number of flower buds per plant, % of control): sprayed at 1 μM onto cotyledons, 14 hours dark, counted on day 16, compound (4) at 1 μM and 100 μM, FIG. 6
Experimental: Seeds (9 g) of morning glory (variety name: Murasaki) were treated with concentrated sulfuric acid for 20 minutes, and then left to stand overnight under running water. Subsequently, the treated seeds were placed on wet sea sand for 24 hours, hilum side up, to thereby form roots. The seeds having roots were planted in sea sand to a depth of 1.5 cm to 2.0 cm, followed by culturing under continuous light (for approximately 5 days). The whole plants of the morning glory which had put forth leaves through the culture were transferred to a culture solution [KNO3 (250 mg), NH4NO3 (250 mg), KH2PO4 (250 mg), MgSO4.7H2O (250 mg), MnSO4.4H2O (1 mg), Fe-citrate n-hydrate (6 mg), H3BO3 (2 mg), CuSO4.5H2O (0.1 mg), ZnSO4.7H2O (0.2 mg), Na2MoO4.2H2O (0.2 mg), Ca(H2PO4)2.2H2O (250 mg)/distilled water (1,000 mL)]. While ketol fatty acid derivative (9) of the invention, which was obtained in the above Example 5, or test compounds such as Compound (4) was directly sprayed onto the cotyledons of the above morning glory plants grown in the culture system, the morning glory plants were subjected to treatment in the dark, then raised under the application of continuous light at 26° C. for 16 days. On day 16, the number of flower buds of the morning glory plants was counted (8 plants/group). The treatment in the dark was performed overnight (for 14 hours). In FIG. 6, along the X axis, (a) represents a control (a group of plants sprayed with distilled water), (b) represents a group of plants sprayed with ketol fatty acid derivative (9) (1 μM), (c) represents a group of plants sprayed with compound (4) (1 μM) and L-isoleusine (1 μM), (d) represents a group of plants sprayed with L-isoleusine (1 μM), (e) represents a group of plants sprayed with compound (4) (1 μM), and (f) represents a group of plants sprayed with compound (4) (100 μM). The Y axis represents flower bud formation promoting activity (shown as the percentage of each group to the control group (=100%) in terms of the number of flower buds per plant). […]

[2] = tested on: a broad range of plants; conditions: alone or in combination with norepinephrine; cited from earlier work
[3] = tested on: morning glory (Pharbitis nil); test: Flower bud formation promoting activity of compounds (4) and (5) in morning glory (Example 2); format: in vivo; conditions: sprayed onto cotyledons, 14 hours dark, counted on day 14; FIG. 3
Experimental: Seeds (9 g) of morning glory (variety name: Murasaki) were treated with concentrated sulfuric acid for 20 minutes, and then left to stand overnight under running water. Subsequently, the treated seeds were placed on wet sea sand for 24 hours, hilum side up, to thereby form roots. The seeds having roots were planted in sea sand to a depth of 1.5 cm to 2.0 cm, followed by culturing under continuous light (for approximately 5 days). The whole plants of the morning glory which had put forth leaves through the culture were transferred to a culture solution [KNO3 (250 mg), NH4NO3 (250 mg), KH2PO4 (250 mg), MgSO4.7H2O (250 mg), MnSO4.4H2O (1 mg), Fe-citrate n-hydrate (6 mg), H3BO3 (2 mg), CuSO4.5H2O (0.1 mg), ZnSO4.7H2O (0.2 mg), Na2MoO4.2H2O (0.2 mg), Ca(H2PO4)2.2H2O (250 mg)/distilled water (1,000 mL)]. Compound (4) or compound (5) was sprayed onto the cotyledons of the above morning glory plants at a spray volume of 2 mL per eight plants. The morning glory plants were subjected to treatment in the dark (14 hours), then raised under the application of continuous light at 26° C. for 14 days. On day 14, the number of flower buds of the morning glory plants was counted. As a control, distilled water was sprayed onto a group of plants. Compound (4) was sprayed at a concentration of 100 μM, whereas compound (5) was sprayed at concentrations of 0.001 μM to 100 μM.

## CC[C@H](C)[C@H](N)C(=O)O [L-isoleucine, reference compound]
[1]
  flower bud formation promoting effect (number of flower buds per plant, % of control): not observed

## CC/C=C\C/C=C\CC(=O)C(O)CCCCCCCC(=O)O (centres unmarked) [compound (4), 9-hydroxy-10-oxo-12(Z),15(Z)-octadecadienoic acid]
[2]
  flower bud formation promoting effect: exhibit flower bud formation promoting effect

## CC/C=C\C[C@H]1[C@H](CC(=O)[C@H](O)CCCCCCCC(=O)O)O[C@@]2(O)CC13C(=CC2=O)NC[C@H]3O [compound (5), (9R)-11-{(2′S,8′S,10′S,11′R)-2′,8′-dihydroxy-7′-oxo-11′-[(Z)-2-pentenyl]-9′-oxa-4′-azatricyclo[6.3.1.0^1.5]dodec-5′-en-10′-yl}-9-hydroxy-10-oxoundecanoic Acid]
[3]
  concentration exhibiting the same level of flower bud formation promoting activity as 100 μM compound (4): 0.01 µM

## CC/C=C\C/C=C\CC(=O)C(O)CCCCCCCC(=O)NC(C(=O)O)C(C)CC [ketol fatty acid derivative (9), N-[9-hydroxy-10-oxo-12(Z),15(Z)-octadecadienoyl]-L-isoleucine]
[1]
  flower bud formation promoting effect (number of flower buds per plant, % of control): equal or higher flower bud formation promoting effect as compared with compound (4)
[1]; sprayed at 0.1 to 100 μM, FIG. 7
  optimum administration concentration for flower bud formation promoting activity: approximately 1 μM
